Common to all, as to experiment: Kinase selectivity, scanMAX Kinase assay panel (DiscoverX), % control at 1 uM
What all share (assay type): binding

In assay [1] the target is T1, scanMAX Kinase assay panel (Homo sapiens, UniProt O00444).
T1 construct: purchased DiscoverX
T1 sequence (O00444 1-970): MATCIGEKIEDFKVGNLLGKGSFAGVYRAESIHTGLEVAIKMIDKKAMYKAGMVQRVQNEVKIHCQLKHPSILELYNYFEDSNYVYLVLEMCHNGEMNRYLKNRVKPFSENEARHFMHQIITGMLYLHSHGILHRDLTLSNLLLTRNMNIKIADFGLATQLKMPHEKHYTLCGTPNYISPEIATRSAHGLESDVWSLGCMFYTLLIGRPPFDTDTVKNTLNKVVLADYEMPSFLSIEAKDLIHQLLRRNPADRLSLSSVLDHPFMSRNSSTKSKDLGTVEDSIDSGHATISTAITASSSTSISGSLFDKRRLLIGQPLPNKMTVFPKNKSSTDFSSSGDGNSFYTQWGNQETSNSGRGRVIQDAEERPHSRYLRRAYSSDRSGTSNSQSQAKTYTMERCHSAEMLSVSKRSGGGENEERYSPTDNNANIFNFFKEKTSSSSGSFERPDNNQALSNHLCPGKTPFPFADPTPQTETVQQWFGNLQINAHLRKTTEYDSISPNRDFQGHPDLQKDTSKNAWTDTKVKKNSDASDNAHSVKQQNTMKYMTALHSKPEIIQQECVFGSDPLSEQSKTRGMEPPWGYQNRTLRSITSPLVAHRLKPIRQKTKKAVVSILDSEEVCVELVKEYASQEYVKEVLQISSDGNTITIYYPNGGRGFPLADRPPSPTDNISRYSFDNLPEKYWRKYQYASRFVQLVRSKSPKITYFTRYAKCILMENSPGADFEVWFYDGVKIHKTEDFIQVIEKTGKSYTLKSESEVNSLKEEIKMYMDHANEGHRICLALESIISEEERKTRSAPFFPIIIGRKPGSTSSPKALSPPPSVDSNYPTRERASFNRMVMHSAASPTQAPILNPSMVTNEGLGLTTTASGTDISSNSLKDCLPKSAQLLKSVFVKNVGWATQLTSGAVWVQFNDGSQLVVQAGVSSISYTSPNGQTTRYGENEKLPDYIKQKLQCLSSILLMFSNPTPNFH
The settings on record: PLK4; 1 uM; read-out: Percent Control (%). A digest of the protocol: (§1)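 A single concentration of 1 uM, in DMSO, is applied across the kinase panel. Activity against an individual enzyme is assigned where % control is less than 35.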

Assay [2] concerns the target T2, scanMAX Kinase assay panel (Homo sapiens, UniProt O60285).
T2 construct: purchased DiscoverX
T2 sequence (O60285 1-661): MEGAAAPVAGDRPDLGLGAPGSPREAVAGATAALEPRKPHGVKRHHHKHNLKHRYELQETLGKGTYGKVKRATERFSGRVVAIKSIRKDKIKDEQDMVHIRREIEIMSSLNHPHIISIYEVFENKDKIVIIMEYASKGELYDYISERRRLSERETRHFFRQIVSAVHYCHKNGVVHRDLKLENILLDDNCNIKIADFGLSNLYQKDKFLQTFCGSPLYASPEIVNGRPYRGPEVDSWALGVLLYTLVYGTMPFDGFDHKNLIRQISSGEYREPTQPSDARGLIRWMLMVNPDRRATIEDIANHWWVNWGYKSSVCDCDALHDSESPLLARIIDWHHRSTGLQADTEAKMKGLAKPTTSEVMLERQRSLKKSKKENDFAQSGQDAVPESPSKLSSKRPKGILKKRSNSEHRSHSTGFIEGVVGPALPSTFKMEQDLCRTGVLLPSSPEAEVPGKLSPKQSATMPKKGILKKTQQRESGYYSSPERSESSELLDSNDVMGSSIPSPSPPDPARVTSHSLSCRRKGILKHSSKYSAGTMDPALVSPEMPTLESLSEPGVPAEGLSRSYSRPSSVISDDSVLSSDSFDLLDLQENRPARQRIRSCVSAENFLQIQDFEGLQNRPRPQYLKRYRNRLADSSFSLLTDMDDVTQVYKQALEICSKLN
The settings on record: ARK5; 1 uM; read-out: Percent Control (%). A digest of the protocol:
as §1

Assay [3] deals with T3, scanMAX Kinase assay panel (Homo sapiens, UniProt P12931).
T3 construct: purchased DiscoverX
T3 sequence (P12931 whole entry): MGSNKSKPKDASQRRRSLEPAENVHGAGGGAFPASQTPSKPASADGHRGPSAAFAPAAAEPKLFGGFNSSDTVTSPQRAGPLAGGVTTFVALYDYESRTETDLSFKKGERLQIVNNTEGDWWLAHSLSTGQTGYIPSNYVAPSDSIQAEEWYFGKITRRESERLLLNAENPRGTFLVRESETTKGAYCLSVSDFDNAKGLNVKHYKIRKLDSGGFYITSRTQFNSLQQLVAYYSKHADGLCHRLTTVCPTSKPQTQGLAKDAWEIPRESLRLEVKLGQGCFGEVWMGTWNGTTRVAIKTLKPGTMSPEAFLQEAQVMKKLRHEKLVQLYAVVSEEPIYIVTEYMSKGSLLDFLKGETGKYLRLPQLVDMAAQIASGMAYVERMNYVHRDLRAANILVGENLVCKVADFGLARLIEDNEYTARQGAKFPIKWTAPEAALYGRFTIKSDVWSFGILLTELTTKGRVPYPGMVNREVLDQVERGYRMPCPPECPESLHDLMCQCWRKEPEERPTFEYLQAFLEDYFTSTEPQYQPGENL
The following applies: SRC; 1 uM; read-out: Percent Control (%). A digest of the protocol:
as §1

Assay [4] deals with T4, scanMAX Kinase assay panel (Homo sapiens, UniProt P31751).
T4 construct: purchased DiscoverX
T4 sequence (P31751 whole entry): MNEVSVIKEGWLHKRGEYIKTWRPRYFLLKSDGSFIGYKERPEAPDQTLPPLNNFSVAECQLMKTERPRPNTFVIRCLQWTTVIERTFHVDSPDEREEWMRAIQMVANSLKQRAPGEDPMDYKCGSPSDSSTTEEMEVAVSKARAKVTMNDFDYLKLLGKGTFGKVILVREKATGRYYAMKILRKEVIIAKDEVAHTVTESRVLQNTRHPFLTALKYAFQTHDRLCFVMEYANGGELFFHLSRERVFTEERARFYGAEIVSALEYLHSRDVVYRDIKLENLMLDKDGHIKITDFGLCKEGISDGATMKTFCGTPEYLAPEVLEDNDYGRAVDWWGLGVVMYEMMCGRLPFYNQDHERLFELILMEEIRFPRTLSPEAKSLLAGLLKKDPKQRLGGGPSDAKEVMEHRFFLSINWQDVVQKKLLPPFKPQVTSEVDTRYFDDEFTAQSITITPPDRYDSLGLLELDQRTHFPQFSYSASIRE
The following applies: AKT2; 1 uM; read-out: Percent Control (%). A digest of the protocol:
as §1

Assay [5] concerns the target T5, scanMAX Kinase assay panel (Homo sapiens, UniProt Q13546).
T5 construct: purchased DiscoverX
T5 sequence (Q13546 1-671): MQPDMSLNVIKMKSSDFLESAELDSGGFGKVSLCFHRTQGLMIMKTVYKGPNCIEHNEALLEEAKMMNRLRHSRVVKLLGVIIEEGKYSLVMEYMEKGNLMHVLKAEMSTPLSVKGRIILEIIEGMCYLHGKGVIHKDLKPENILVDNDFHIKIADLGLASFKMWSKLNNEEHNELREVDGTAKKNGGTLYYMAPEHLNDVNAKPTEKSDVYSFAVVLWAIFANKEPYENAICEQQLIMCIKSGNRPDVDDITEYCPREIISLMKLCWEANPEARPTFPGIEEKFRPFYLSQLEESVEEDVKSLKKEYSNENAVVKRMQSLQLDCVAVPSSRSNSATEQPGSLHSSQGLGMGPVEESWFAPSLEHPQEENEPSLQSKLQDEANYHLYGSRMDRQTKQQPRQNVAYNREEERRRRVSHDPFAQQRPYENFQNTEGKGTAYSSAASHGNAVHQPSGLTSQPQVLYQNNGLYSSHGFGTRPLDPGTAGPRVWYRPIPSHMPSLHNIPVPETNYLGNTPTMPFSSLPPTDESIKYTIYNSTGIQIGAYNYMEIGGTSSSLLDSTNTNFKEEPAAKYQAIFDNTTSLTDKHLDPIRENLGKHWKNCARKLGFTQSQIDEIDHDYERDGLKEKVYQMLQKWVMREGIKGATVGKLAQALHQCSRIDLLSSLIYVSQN
The settings on record: RIPK1; 1 uM; read-out: Percent Control (%). A digest of the protocol: as §1

Turning to `Cc1ccc(C(=O)Nc2ccc(CN3CCN(C)CC3)c(C(F)(F)F)c2)cc1C#Cc1cnc2c(Nc3cnn(C)c3)cccn12` [Example 1, 4-methyl-3-((8-((1-methyl-1H-pyrazol-4-yl)amino)imidazo[1,2-a]pyridin-3-yl)ethynyl)-N-(4-((4-methylpiperazin-1-yl)methyl)-3-(trifluoromethyl)phenyl)benzamide], the remaining binding at 1 µM in assay [1] came out at 79%; in assay [2], 99%; in assay [3] it was 0%; in assay [4], 37%; in assay [5], 0%.

Consider `Cc1cn(-c2cc(NC(=O)c3ccc(C)c(C#Cc4cnc5c(Nc6cnn(C)c6)cccn45)c3)cc(C(F)(F)F)c2)cn1` [Example 12, 4-methyl-N-(3-(4-methyl-1H-imidazol-1-yl)-5-(trifluoromethyl)phenyl)-3-((8-((1-methyl-1H-pyrazol-4-yl)amino)imidazo[1,2-a]pyridin-3-yl)ethynyl)benzamide], for which the remaining binding at 1 µM in assay [1] was found to be 85%; in assay [2], 100%; in assay [3] it was 1%; in assay [4], 82%; in assay [5] it was 5%.

On to `Cc1ccc(NC(=O)C2(C(=O)Nc3ccc(F)cc3)CC2)cc1C#Cc1cnc2c(Nc3cnn(C(C)C)c3)cccn12` [Example 78], for which the remaining binding at 1 µM is 100% in assay [1]; 94% in assay [2]; 73% in assay [3]; 99% in assay [4]; 19% in assay [5].

(Values after US10870647B2, “Imidazopyridine derivative, method for preparing same, and pharmaceutical composition containing same as active ingredient for preventing or treating cancer” (DAEGU-GYEONGBUK MEDICAL INNOVATION FOUNDATION, priority 2016, dated 2020).)
